Assay results published in article PMC12189828, “Substitution of Proline Residues by 4-Fluoro-L-Proline Affects the Mechanism of the Proline-Rich Antimicrobial Peptide Api137” (Antibiotics, 2025).
Values after ≈ are worked out from the molar mass of the structure shown. Where a SMILES comes first, the peptide text is derived from it. The star is where a group is joined. Orn(α-tetramethylguanidino) = CN(C)C(=N[C@@H](CCCN)C(=O)*)N(C)C

Columns and labels:
[1] = system: E. coli RN31; experiment: Minimum inhibitory concentration (MIC) against E. coli RN31; assay type: cell-based, Escherichia coli; conditions: E. coli RN31, 33% TSB, 37 °C overnight (~16 h), 7.5 × 10^6 bacteria/mL; two independent experiments with two replicates each (n = 4)
Description: Minimum inhibitory concentrations were determined for E. coli RN31 grown in 33% TSB (37 °C, 200 rpm) with a starting OD600 of 0.05. After four hours, the cell count was adjusted to 1.5 × 10^7 bacteria/mL. In a transparent 96-well plate, the peptides were diluted in a two-fold dilution series in 33% TSB over 10 dilution steps, and E. coli was added to obtain a final cell count of 7.5 × 10^6 bacteria/mL and incubated at 37 °C overnight. OD600 was determined using a PARADIGM^TM microplate reader (Beckman Coulter, Salzburg, Austria) before and after cultivation. The MIC was defined as the lowest peptide concentration preventing visible bacterial growth.

[2] = target: 70S ribosomes isolated from E. coli BW25113 (Escherichia coli, UniProt P60723+P61175); experiment: Fluorescence polarization, competition with cf-Api137 for 70S ribosome binding (Ki); conditions: crude 70S ribosome extract, fluorescence polarization, 28 °C, 90 min + 90 min; two independent experiments with two replicates each (n = 4); Table 2
Description: E. coli BW25113 were cultivated in LB medium and harvested by centrifugation (5000× g, 15 min, 4 °C) at an OD600 of 3–4. Cell pellets were washed in ribosome preparation buffer (20 mmol/L HEPES-KOH, 6 mmol/L MgCl2, 30 mmol/L NH4Cl, pH 7.6, 4 °C), centrifuged (4100× g, 30 min, 4 °C), and resuspended in ribosome preparation buffer (0.5 g/L) containing freshly added 2-mercaptoethanol (4 mmol/L) and lysozyme. Cells were incubated on ice for 30 min and disrupted in six cycles using a FastPrep-24^TM 5G instrument (MP Biomedicals, Eschwege, Germany) with the BigPrep 50 mL setting (40 s, 4.0 m/s), interrupted by one minute of incubation on ice between the cycles. After a centrifugation step (1620× g, 5 min, 4 °C), DNase I (5 U/mL) was added to the supernatant and incubated for 1 h on ice. Cell debris was removed by centrifugation at 16,000× g (30 min, 4 °C) and twice at 32,000× g (60 min, 4 °C). Crude ribosomes were obtained by centrifugation at 165,000× g (17 h, 4 °C). […]
Inhibition constants (Ki) were measured for the 70S ribosome extract using cf-labeled and unlabeled peptides in ribosome preparation buffer. […] Fluorescence polarization was determined on a PARADIGM^TM microplate reader in the top reading position (λex = 485 nm, λem = 535 nm). […] Ki values were calculated as described by Mathias and Jung.

[3] = system: mice; conditions: cited from earlier work

For `CC[C@H](C)[C@H](NC(=O)[C@H](Cc1ccc(O)cc1)NC(=O)[C@@H](NC(=O)[C@@H]1CCCN1C(=O)[C@H](CCCNC(=N)N)NC(=O)[C@H](CC(N)=O)NC(=O)[C@H](CC(N)=O)NC(=O)[C@H](CCCN)N=C(N(C)C)N(C)C)C(C)C)C(=O)N1CCC[C@H]1C(=O)N[C@@H](CCCNC(=N)N)C(=O)N1CCC[C@H]1C(=O)N[C@@H](CCCNC(=N)N)C(=O)N1CCC[C@H]1C(=O)N1CCC[C@H]1C(=O)N[C@@H](Cc1c[nH]cn1)C(=O)N1CCC[C@H]1C(=O)N[C@@H](CCCNC(=N)N)C(=O)N[C@@H](CC(C)C)C(=O)O` [Api137] ({Orn(α-tetramethylguanidino)}-NNRPVYIPRPRPPHPRL-OH; N-terminus and C-terminus assumed), the MIC [1] is listed as 4 µg/mL (≈ 1.75 µM), the Ki [2] is listed as 2.6 ± 0.2 nM and the tolerability in mice [3] is listed as “well tolerated”.
